Patent US4725683A, “Fluorophenoxyphenoxypropionates and derivatives thereof” (The Dow Chemical Company, priority 1985, dated 1988)

Legend:
Format in all cases: in vivo
pigweed [1] = test: Preemergent activity; details: 0.28 kgs/hectare, seeds
Protocol: (§1) In a representative operation, 2-[4-(2-fluoro-4-trifluoromethylphenoxy)phenoxy]propionic acid methyl ester, to be utilized in a series of tests, is dissolved in acetone to one half of the final volume (twice the final concentration) to be used and the acetone solution in each case is admixed with an equal volume of water containing 0.1 percent by weight of Tween-20 surface active material (Tween-20 is a trademark of Atlas Chemical Company). The composition, generally in the nature of an emulsion, was employed to treat separate respective seed beds of sandy loam soil of good nutrient content wherein each seed bed contained separate groups of good viable seeds, each group being of one of a known plant species. The various beds were positioned side by side and exposed to substantially identical conditions of temperature and light. Each bed was maintained so as to prevent any interaction with the test compound in different seed beds. Each seed bed was treated with the composition as a spray employing conventional spraying equipment to deposit a predetermined amount of the compound uniformly throughout the surface of the bed. Another seed bed was treated only with the acetone-Tween-20 water mixture with no chemical added to serve as a control. After treatment, the seed beds were maintained for two weeks under greenhouse conditions conducive for good plant growth and watered as necessary. Control refers to the reduction in growth of the test species in the presence of the test chemical relative to the observed growth of the same species in the absence of the test chemical.
(§2) Substantially the same procedures described in Example C were repeated using as the active ingredients

rape [2] = test: Preemergent activity; details: 0.28 kgs/hectare, seeds
Protocol: as §1, §2

sugarbeets = test: Preemergent activity; details: 0.28 kgs/hectare, seeds
Protocol: as §1, §2

velvet leaf [3] = test: Preemergent activity; details: 0.28 kgs/hectare, seeds
Protocol: as §1, §2

jimson weed [4] = test: Preemergent activity; details: 0.28 kgs/hectare, seeds
Protocol: as §1, §2

yellow nutsedge = test: Preemergent activity; details: 0.28 kgs/hectare, seeds
Protocol: as §1, §2

cotton [5] = test: Preemergent activity; details: 0.28 kgs/hectare, seeds
Protocol: as §1, §2

soybean = test: Preemergent activity; details: 0.28 kgs/hectare, seeds
Protocol: as §1, §2

pigweed [6] = test: Postemergent activity; details: 125 ppm
Protocol: (§3) Representative compositions of the present invention were evaluated for the postemergence control of species of plants listed in Table A. In these evaluations, pots of the plant species listed in Table A, grown to a height of about 10 cms, were used. Aqueous spray compositions, containing various amounts of 2-[4-(2-fluoro-4-trifluoromethylphenoxy)-phenoxy]propionic acid methy ester, i.e., 125 ppm, 62.5 ppm, 31.25 ppm, 15.6 ppm, 7.8 ppm and 3.9 ppm, respectively, were applied to separate pots. The spray compositions were made by mixing the active ingredient in acetone to 1/2 the final volume, i.e., twice the final concentration. An equal amount of water was added to the active ingredient/acetone mixture wherein the water contained 0.1 percent by weight of TWEEN® 200 surfactant. The application to the plants was made to the point of run-off and was carried out with conventional spraying equipment. Other pots were sprayed with similar compositions containing no toxicant to serve as controls. Thereafter, the pots were maintained under conditions conducive for plant growth. Two weeks after treatment, the pots were examined for plant growth and evaluated on a scale of 0 to 100 where 0 represents no effect and 100 represents complete kill. The results of the examination of the treated pots are set forth below in Table A.

rape [7] = test: Postemergent activity; details: 125 ppm
Protocol: as §3

soybeans = test: Postemergent activity; details: 125 ppm
Protocol: as §3

sugar beets = test: Postemergent activity; details: 125 ppm
Protocol: as §3

velvet leaf [8] = test: Postemergent activity; details: 125 ppm
Protocol: as §3

jimson weed [9] = test: Postemergent activity; details: 125 ppm
Protocol: as §3

Johnson Grass [10] = test: Postemergent activity
Protocol: as §3

morning glory = test: Postemergent activity; details: 125 ppm
Protocol: as §3

cotton [11] = test: Postemergent activity; details: 125 ppm
Protocol: as §3

cocklebur = test: Postemergent activity; details: 125 ppm
Protocol: as §3

Johnson Grass [12] = test: Preemergent activity; details: Sorghum halepense, pre-emergence, read-out: Preemergence Control; for pest or weed control at 70 g/ha: 0.07 kgs/hectare; for pest or weed control at 280 g/ha: 0.28 kgs/hectare
How it was run: (§4)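 Test compound was applied in acetone mixed with an equal volume of water containing 0.1% Tween-20, sprayed preemergence onto seed beds of sandy loam soil sown with the test species. Beds were kept under identical temperature and light. A solvent-only spray served as control.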

Wild Oats = test: Preemergent activity; details: Avena fatua, pre-emergence, read-out: Preemergence Control; for pest or weed control at 70 g/ha: 0.07 kgs/hectare; for pest or weed control at 280 g/ha: 0.28 kgs/hectare
How it was run: as §4

Crabgrass = test: Preemergent activity
How it was run: as §4

Question: Which results are given for `COC(=O)C(C)Oc1ccc(Oc2ccc(C(F)(F)F)cc2F)cc1` (centres unmarked) [2-[4-(2-fluoro-4-trifluoromethylphenoxy)phenoxy]propionic acid methyl ester]?
Answer: phytotoxic effect (pigweed [1]): inactive; phytotoxic effect (rape [2]): inactive; phytotoxic effect (sugarbeets): inactive; phytotoxic effect (velvet leaf [3]): inactive; phytotoxic effect (jimson weed [4]): inactive; phytotoxic effect (yellow nutsedge): inactive; phytotoxic effect (cotton [5]): inactive; phytotoxic effect (soybean): inactive; phytotoxic effect (pigweed [6]): inactive; phytotoxic effect (rape [7]): inactive; phytotoxic effect (soybeans): inactive; phytotoxic effect (sugar beets): inactive; phytotoxic effect (velvet leaf [8]): inactive; phytotoxic effect (jimson weed [9]): inactive; % Control (Johnson Grass [10]; 3.9 ppm): 60%; % Control (Johnson Grass [10]; 7.8 ppm): 100%; % Control (Johnson Grass [10]; 15.6 ppm): 100%; % Control (Johnson Grass [10]; 31.25 ppm): 100%; % Control (Johnson Grass [10]; 62.5 ppm): 100%; % Control (Johnson Grass [10]; 125 ppm): 100%; phytotoxic effect (morning glory): inactive; phytotoxic effect (cotton [11]): inactive; phytotoxic effect (cocklebur): inactive; pest or weed control at 18 g/ha (Johnson Grass [12]; 0.018 kgs/hectare): 20%; pest or weed control at 35 g/ha (Johnson Grass [12]; 0.035 kgs/hectare): 60%; pest or weed control at 70 g/ha (Johnson Grass [12]): 90%; pest or weed control at 114 g/ha (Johnson Grass [12]; 0.114 kgs/hectare): 100%; pest or weed control at 280 g/ha (Johnson Grass [12]): 100%; pest or weed control at 18 g/ha (Wild Oats; 0.018 kgs/hectare): 0%; pest or weed control at 35 g/ha (Wild Oats; 0.035 kgs/hectare): 20%; pest or weed control at 70 g/ha (Wild Oats): 90%; pest or weed control at 114 g/ha (Wild Oats; 0.114 kgs/hectare): 100%; pest or weed control at 280 g/ha (Wild Oats): 100%; Preemergence Control (Crabgrass; 0.018 kgs/hectare): 40%; Preemergence Control (Crabgrass; 0.035 kgs/hectare): 100%; Preemergence Control (Crabgrass; 0.07 kgs/hectare): 100%; Preemergence Control (Crabgrass; 0.114 kgs/hectare): 100%; Preemergence Control (Crabgrass; 0.28 kgs/hectare): 100%

Question: What does the source list for `COC(=O)C(C)Oc1ccc(Oc2ccc(Cl)cc2F)cc1` (racemic) [Example 4-Chloro-, 2-[4-(4-chloro-2-fluorophenoxy)phenoxy]propionic acid methyl ester]?
Answer: pest or weed control at 70 g/ha (Johnson Grass [12]): 0%; pest or weed control at 140 g/ha (Johnson Grass [12]; 0.14 kgs/hectare): 0%; pest or weed control at 280 g/ha (Johnson Grass [12]): 0%; pest or weed control at 560 g/ha (Johnson Grass [12]; 0.56 kgs/hectare): 60%; pest or weed control at 1120 g/ha (Johnson Grass [12]; 1.12 kgs/hectare): 80%; pest or weed control at 70 g/ha (Wild Oats): 0%; pest or weed control at 140 g/ha (Wild Oats; 0.14 kgs/hectare): 0%; pest or weed control at 280 g/ha (Wild Oats): 20%; pest or weed control at 560 g/ha (Wild Oats; 0.56 kgs/hectare): 50%; pest or weed control at 1120 g/ha (Wild Oats; 1.12 kgs/hectare): 70%; Preemergence Control (Crabgrass; 0.07 kgs/hectare): 60%; Preemergence Control (Crabgrass; 0.14 kgs/hectare): 100%; Preemergence Control (Crabgrass; 0.28 kgs/hectare): 100%; Preemergence Control (Crabgrass; 0.56 kgs/hectare): 100%; Preemergence Control (Crabgrass; 1.12 kgs/hectare): 100%
